Source: patent US20260062422A1 (Halda Therapeutics OpCo, Inc., priority 2022, published 2026)

Tests used:
androgen receptor = biological target: T1, androgen receptor (Homo sapiens, UniProt P10275); assay: Assay for binding affinity to androgen receptor ([3H]methyltrienolone radioligand, cell cytosol); details: 1 nM [3H]methyltrienolone, 24 hours at 4° C., Table 5
T1 sequence (P10275 1-920 T878A): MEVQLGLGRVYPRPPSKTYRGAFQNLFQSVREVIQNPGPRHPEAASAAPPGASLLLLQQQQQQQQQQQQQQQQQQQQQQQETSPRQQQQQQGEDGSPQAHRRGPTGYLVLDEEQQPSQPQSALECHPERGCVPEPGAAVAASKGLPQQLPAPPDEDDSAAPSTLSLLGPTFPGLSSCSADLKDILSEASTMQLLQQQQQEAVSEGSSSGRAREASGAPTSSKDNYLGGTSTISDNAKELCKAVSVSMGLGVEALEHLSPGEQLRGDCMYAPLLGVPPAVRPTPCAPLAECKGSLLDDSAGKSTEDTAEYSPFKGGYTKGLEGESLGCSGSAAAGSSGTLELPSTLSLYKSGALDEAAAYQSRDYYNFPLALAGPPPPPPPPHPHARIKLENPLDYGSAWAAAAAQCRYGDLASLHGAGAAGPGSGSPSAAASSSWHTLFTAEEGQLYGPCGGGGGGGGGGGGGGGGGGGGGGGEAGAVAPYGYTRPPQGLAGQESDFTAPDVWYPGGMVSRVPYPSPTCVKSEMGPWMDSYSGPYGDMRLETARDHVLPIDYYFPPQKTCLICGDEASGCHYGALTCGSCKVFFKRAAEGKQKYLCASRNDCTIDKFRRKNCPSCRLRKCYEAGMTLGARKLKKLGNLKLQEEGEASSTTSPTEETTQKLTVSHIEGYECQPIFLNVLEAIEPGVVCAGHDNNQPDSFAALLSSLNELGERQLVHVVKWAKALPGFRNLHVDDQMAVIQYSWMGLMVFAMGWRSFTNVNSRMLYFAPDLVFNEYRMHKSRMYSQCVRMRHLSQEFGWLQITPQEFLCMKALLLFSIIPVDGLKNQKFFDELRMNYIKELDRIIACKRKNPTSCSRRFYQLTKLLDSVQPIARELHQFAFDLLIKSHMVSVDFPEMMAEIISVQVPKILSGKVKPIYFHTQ
Experimental: Fractions of cell cytosol ([…] cell/point) were incubated for 24 hours at 4° C. with 1 nM [^3H]methyltrienolone in the absence or presence of the test compound in a buffer containing 25 mM Hepes-Tris (pH 7.4), 1 mM EDTA, 10 mM Na2MoO4, 2 mM DTT, 5 μM triamcinolone acetonide, and 10% glycerol. Nonspecific binding was determined in the presence of 1 μM testosterone. Following incubation, the samples were filtered rapidly under vacuum through glass fiber filters (GF/B, Packard) presoaked with 0.3% PEI and rinsed several times with ice-cold 50 mM Tris-HCl using a 96-sample cell harvester (Unifilter, Packard). The filters were dried then counted for radioactivity in a scintillation counter (Topcount, Packard) using a scintillation cocktail (Microscint 0, Packard). The results are expressed as a percent inhibition of the control radioligand specific binding. The standard reference compound is testosterone, which is tested in each experiment at several concentrations to obtain a competition curve from which its IC50 is calculated.

VCaP cells = assay: Cellular growth inhibition assay for VCaP cells, CellTiter-Glo; format: cell-based, human; details: Homo sapiens, VCaP, 72 h, 72 hours treatment, CellTiter-Glo 2.0
Method in brief: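 GI50 values come from four-parameter curve fits of luminescence data normalized to a zero baseline. Compound, in medium with 0.5% DMSO, was added one day after plating and left for 72 h before CellTiter-Glo 2.0 addition.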

SMILES | Kd (androgen receptor) | GI50 (VCaP cells)
Cc1sc2c(c1C)C(c1ccc(Cl)cc1)=N[C@@H](CC(=O)NCCCN1CCN(CCCN(C)c3ncc(C(=O)N[C@H]4C(C)(C)[C@H](Oc5ccc(C#N)c(Cl)c5)C4(C)C)cn3)CC1)c1nnc(C)n1-2 [Compound I-5, N-((1r,3r)-3-(3-chloro-4-cyanophenoxy)-2,2,4,4-tetramethylcyclobutyl)-2-((3-(4-(3-(2-((S)-4-(4-chlorophenyl)-2,3,9-trimethyl-6H-thieno[3,2-f][1,2,4]triazolo[4,3-a][1,4]diazepin-6-yl)acetamido)propyl)piperazin-1-yl)propyl)(methyl)amino)pyrimidine-5-carboxamide] | < 50 nM | < 500 nM
Cc1sc2c(c1C)C(c1ccc(Cl)cc1)=N[C@@H](CC(=O)NCCOCCOCCOCCOCCOC1CCN(c3ncc(C(=O)N[C@H]4C(C)(C)[C@H](Oc5ccc(C#N)c(Cl)c5)C4(C)C)cn3)CC1)c1nnc(C)n1-2 [Compound I-8] | < 50 nM | < 500 nM
Cc1sc2c(c1C)C(c1ccc(Cl)cc1)=N[C@H](CC(=O)NCCOCCOCCOCCOCCOCCOCCOC1CCN(c3ncc(C(=O)N[C@H]4C(C)(C)[C@H](Oc5ccc(C#N)c(Cl)c5)C4(C)C)cn3)CC1)c1nnc(C)n1-2 [Compound I-9] | < 50 nM | < 500 nM
Cc1sc2c(c1C)C(c1ccc(Cl)cc1)=N[C@@H](CC(=O)NCCCN1CCN(CCCOC3CCN(c4ncc(C(=O)N[C@H]5C(C)(C)[C@H](Oc6ccc(C#N)c(Cl)c6)C5(C)C)cn4)CC3)CC1)c1nnc(C)n1-2 [Compound I-10] | < 50 nM | < 500 nM
Cc1sc2c(c1C)C(c1ccc(Cl)cc1)=N[C@H](CC(=O)NCCOCCOCCOCCOC1CCN(c3ncc(C(=O)N[C@H]4C(C)(C)[C@H](Oc5ccc(C#N)c(Cl)c5)C4(C)C)cn3)CC1)c1nnc(C)n1-2 [Compound I-13] | < 50 nM | > 3000 nM
Cc1sc2c(c1C)C(c1ccc(Cl)cc1)=N[C@@H](CC(=O)NCCOCCOCCOCC1CN(c3ncc(C(=O)N[C@H]4C(C)(C)[C@H](Oc5ccc(C#N)c(Cl)c5)C4(C)C)cn3)C1)c1nnc(C)n1-2 [Compound I-18] | < 50 nM | < 500 nM
Cc1sc2c(c1C)C(c1ccc(Cl)cc1)=N[C@H](CC(=O)NCCOCCOCCOCCOCCN(C)c1ncc(C(=O)N[C@H]3C(C)(C)[C@H](Oc4ccc(C#N)c(Cl)c4)C3(C)C)cn1)c1nnc(C)n1-2 [Compound I-19] | < 50 nM | > 3000 nM
Cc1sc2c(c1C)C(c1ccc(Cl)cc1)=N[C@@H](CC(=O)NCCCN1CCN(CC3CCN(c4ncc(C(=O)N[C@H]5C(C)(C)[C@H](Oc6ccc(C#N)c(Cl)c6)C5(C)C)cn4)CC3)CC1)c1nnc(C)n1-2 [Compound I-36, N-((1r,3r)-3-(3-chloro-4-cyanophenoxy)-2,2,4,4-tetramethylcyclobutyl)-2-(4-((4-(3-(2-((S)-4-(4-chlorophenyl)-2,3,9-trimethyl-6H-thieno[3,2-f][1,2,4]triazolo[4,3-a][1,4]diazepin-6-yl)acetamido)propyl)piperazin-1-yl)methyl)piperidin-1-yl)pyrimidine-5-carboxamide] | < 50 nM | 500 to 1500 nM

The remaining lines, values ahead:

Kd (androgen receptor) | GI50 (VCaP cells) | SMILES
< 50 nM | < 500 nM | Cc1sc2c(c1C)C(c1ccc(Cl)cc1)=N[C@@H](CC(=O)NCCOC1CCN(c3ncc(C(=O)N[C@H]4C(C)(C)[C@H](Oc5ccc(C#N)c(Cl)c5)C4(C)C)cn3)CC1)c1nnc(C)n1-2 [Compound I-6]
< 50 nM | < 500 nM | Cc1sc2c(c1C)C(c1ccc(Cl)cc1)=N[C@@H](CC(=O)NCCOCCOCCOC1CCN(c3ncc(C(=O)N[C@H]4C(C)(C)[C@H](Oc5ccc(C#N)c(Cl)c5)C4(C)C)cn3)CC1)c1nnc(C)n1-2 [Compound I-7]
< 50 nM | < 500 nM | Cc1sc2c(c1C)C(c1ccc(Cl)cc1)=N[C@@H](CC(=O)NCCCCCCCOC1CCN(c3ncc(C(=O)N[C@H]4C(C)(C)[C@H](Oc5ccc(C#N)c(Cl)c5)C4(C)C)cn3)CC1)c1nnc(C)n1-2 [Compound I-24]
< 50 nM | < 500 nM | Cc1sc2c(c1C)C(c1ccc(Cl)cc1)=N[C@@H](CC(=O)NCCCCOCCOC1CCN(c3ncc(C(=O)N[C@H]4C(C)(C)[C@H](Oc5ccc(C#N)c(Cl)c5)C4(C)C)cn3)CC1)c1nnc(C)n1-2 [Compound I-28]
